ChEMBL document CHEMBL5528039, “Discovery of a Macrocyclic Influenza Cap-Dependent Endonuclease Inhibitor” (J Med Chem, 2024)
Calls of active or inactive are those of the source. No cut-off for these calls is given here.

Assays:
[1] = test system: Influenza A virus; experiment: Antiviral activity against Influenza A virus A/PR/8/34 (H1N1) infected in MDCK cells assessed as reduction in virus-induced cytopathic effect incubated for 5 days by CCK8 based microplate spectrophotometric analysis; assay type: functional, organism-based; details: 120 h; for EC90: time 5 day
[2] = Prodrug conversion in BALB/c mouse assessed as Baloxavir Cmax at 5 mg/kg, po measured after 24 hrs by LC-MS/MS analysis; assay type: ADME, organism-based; details: in vivo
[3] = Prodrug conversion in BALB/c mouse assessed as Baloxavir AUC (0 to last) at 5 mg/kg, po measured after 24 hrs by LC-MS/MS analysis; assay type: ADME, organism-based; details: in vivo
[4] = Prodrug conversion in BALB/c mouse assessed as Baloxavir half-life at 5 mg/kg, po measured after 24 hrs by LC-MS/MS analysis; assay type: ADME, organism-based; details: in vivo
[5] = test system: Influenza A virus; experiment: Antiviral activity against Influenza A virus A/PR/8/34 infected in BALB/c mouse assessed as reduction in viral load in lungs at 5 mg/kg, po pre-infected with virus for 48 hrs followed by twice daily compound administration starting from day 2 and measured 1 hrs after last dose on day 5 by crystal violet staining based analysis; assay type: functional, organism-based; details: time 73.0 hrs
[6] = Protein binding in mouse plasma assessed as unbound fraction at 400 uM incubated for 4 hrs by LC-MS/MS analysis; assay type: ADME, cell-free
[7] = test system: Influenza B virus; experiment: Antiviral activity against Influenza B virus B/Lee/40 infected in MDCK cells assessed as reduction in virus-induced cytopathic effect incubated for 5 days by CCK8 based microplate spectrophotometric analysis; assay type: functional, organism-based; details: B/Lee/40, MDCK, 120 h; for EC90: time 5 day
[8] = AUC (0 to last) in BALB/c mouse at 2 mg/kg, iv measured after 24 hrs by LC-MS/MS analysis; assay type: ADME, organism-based; details: in vivo
[9] = Half-life in BALB/c mouse at 2 mg/kg, iv measured after 24 hrs by LC-MS/MS analysis; assay type: ADME, organism-based; details: in vivo
[10] = test system: Influenza A virus; experiment: Antiviral activity against Influenza A virus A/California/07/2009 (H1N1) infected in MDCK cells assessed as reduction in virus-induced cytopathic effect incubated for 5 days by CCK8 based microplate spectrophotometric analysis; assay type: functional, organism-based; details: 120 h; for EC90: time 5 day
[11] = test system: Influenza B virus; experiment: Antiviral activity against Influenza B virus B/Florida/78/2015 infected in MDCK cells assessed as reduction in virus-induced cytopathic effect incubated for 5 days by CCK8 based microplate spectrophotometric analysis; assay type: functional, organism-based; details: B/Florida/78/2015, MDCK, 120 h; for EC90: time 5 day
[12] = test system: Influenza A virus; experiment: Antiviral activity against Influenza A virus A/California/2/2014 (H3N2) infected in MDCK cells assessed as reduction in virus-induced cytopathic effect incubated for 5 days by CCK8 based microplate spectrophotometric analysis; assay type: functional, organism-based; details: 120 h; for EC90: time 5 day
[13] = Protein binding in human plasma assessed as unbound fraction at 400 uM incubated for 4 hrs by LC-MS/MS analysis; assay type: ADME, cell-free
[14] = Inhibition of influenza A virus A/WSN/33 (H1N1) RNA polymerase transfected in HEK293T/17 cells incubated for 24 hrs by dual luciferase reporter gene assay; assay type: cell-based; details: HEK293T/17, 24 h
[15] = Volume of distribution at steady state in BALB/c mouse at 2 mg/kg, iv measured after 24 hrs by LC-MS/MS analysis; assay type: ADME, organism-based; details: in vivo, read-out: Vdss
[16] = Clearance in BALB/c mouse at 2 mg/kg, iv measured after 24 hrs by LC-MS/MS analysis; assay type: ADME, organism-based; details: in vivo
[17] = Metabolic stability in human liver microsomes assessed as intrinsic clearance at 1 uM measured upto 60 mins in presence of NADPH by LC-MS/MS analysis; assay type: ADME, Microsome; details: 1 h
[18] = test system: CCRF-CEM; experiment: Cytotoxicity against human CCRF-CEM cells incubated for 3 days by CellTiter-Glo assay; assay type: functional; details: 72 h, time 3 day
[19] = Metabolic stability in cynomolgus monkey liver microsomes assessed as intrinsic clearance at 1 uM measured upto 60 mins in presence of NADPH by LC-MS/MS analysis; assay type: ADME, Macaca fascicularis, Microsome; details: 1 h
[20] = test system: A-375; experiment: Cytotoxicity against human A-375 cells incubated for 3 days by CellTiter-Glo assay; assay type: functional; details: A-375, 72 h, time 3 day
[21] = test system: H1-HeLa; experiment: Cytotoxicity against human H1-HeLa cells incubated for 3 days by CellTiter-Glo assay; assay type: functional; details: 72 h, time 3 day
[22] = Half-life in cynomolgus monkey at 0.25 mg/kg, iv measured after 24 hrs by LC-MS/MS analysis; assay type: ADME, organism-based, Macaca fascicularis; details: in vivo
[23] = test system: MOLT-4; experiment: Cytotoxicity against human MOLT-4 cells incubated for 3 days by CellTiter-Glo assay; assay type: functional; details: MOLT-4, 72 h, time 3 day
[24] = Protein binding in cynomolgus monkey plasma assessed as unbound fraction at 400 uM incubated for 4 hrs by LC-MS/MS analysis; assay type: ADME, cell-free, Macaca fascicularis
[25] = test system: HEK293; experiment: Cytotoxicity against HEK293 cells incubated for 3 days by CellTiter-Glo assay; assay type: functional; details: Homo sapiens, HEK293, 72 h; time 3 day
[26] = Volume of distribution at steady state in Beagle dog at 0.25 mg/kg, iv measured after 24 hrs by LC-MS/MS analysis; assay type: ADME, organism-based, Canis lupus familiaris; details: in vivo, read-out: Vdss
[27] = test system: MRC5; experiment: Cytotoxicity against human MRC5 cells incubated for 3 days by CellTiter-Glo assay; assay type: functional; details: MRC5, 72 h, time 3 day
[28] = test system: Influenza B virus; experiment: Potency index, ratio of baloxavir EC50 to test compound EC50 for antiviral activity against Influenza B virus B/Lee/40 infected in MDCK cells assessed as reduction in virus-induced cytopathic effect incubated for 5 days by CCK8 based microplate spectrophotometric analysis; assay type: functional; details: time 5 day
[29] = AUC (0 to last) in cynomolgus monkey at 0.25 mg/kg, iv measured after 24 hrs by LC-MS/MS analysis; assay type: ADME, organism-based, Macaca fascicularis; details: in vivo
[30] = test system: HepG2; experiment: Cytotoxicity against human HepG2 cells incubated for 3 days by CellTiter-Glo assay; assay type: functional; details: HepG2, 72 h, time 3 day
[31] = Volume of distribution at steady state in cynomolgus monkey at 0.25 mg/kg, iv measured after 24 hrs by LC-MS/MS analysis; assay type: ADME, organism-based, Macaca fascicularis; details: in vivo, read-out: Vdss
[32] = Protein binding in dog plasma assessed as unbound fraction at 400 uM incubated for 4 hrs by LC-MS/MS analysis; assay type: ADME, cell-free, Canis lupus familiaris
[33] = Metabolic stability in dog liver microsomes assessed as intrinsic clearance at 1 uM measured upto 60 mins in presence of NADPH by LC-MS/MS analysis; assay type: ADME, Canis lupus familiaris, Microsome; details: 1 h
[34] = Clearance in Beagle dog at 0.25 mg/kg, iv measured after 24 hrs by LC-MS/MS analysis; assay type: ADME, organism-based, Canis lupus familiaris; details: in vivo
[35] = test system: Influenza B virus; experiment: Potency index, ratio of baloxavir EC50 to test compound EC50 for antiviral activity against Influenza B virus B/Florida/78/2015 infected in MDCK cells assessed as reduction in virus-induced cytopathic effect incubated for 5 days by CCK8 based microplate spectrophotometric analysis; assay type: functional; details: time 5 day
[36] = AUC (0 to last) in Beagle dog at 0.25 mg/kg, iv measured after 24 hrs by LC-MS/MS analysis; assay type: ADME, organism-based, Canis lupus familiaris; details: in vivo
[37] = test system: COLO 205; experiment: Cytotoxicity against human COLO 205 cells incubated for 3 days by CellTiter-Glo assay; assay type: functional; details: COLO 205, 72 h, time 3 day
[38] = Half-life in Beagle dog at 0.25 mg/kg, iv measured after 24 hrs by LC-MS/MS analysis; assay type: ADME, organism-based, Canis lupus familiaris; details: in vivo
[39] = Clearance in cynomolgus monkey at 0.25 mg/kg, iv measured after 24 hrs by LC-MS/MS analysis; assay type: ADME, organism-based, Macaca fascicularis; details: in vivo
[40] = test system: HEp-2; experiment: Cytotoxicity against human HEp-2 cells incubated for 3 days by CellTiter-Glo assay; assay type: functional; details: HEp-2, 72 h, time 3 day
[41] = Metabolic stability in mouse liver microsomes assessed as intrinsic clearance at 1 uM measured upto 60 mins in presence of NADPH by LC-MS/MS analysis; assay type: ADME, Microsome; details: 1 h
[42] = Selectivity index, ratio of CC50 for human MOLT-4 cells to EC50 for antiviral activity against Influenza B virus B/Lee/40 infected in MDCK cells; assay type: functional

CC(C)N1C(=O)c2c(O)c(=O)ccn2N2[C@H](c3ccccc3)c3ccccc3OCC[C@@H]12 (racemic)
EC50 [1]: 53 nM
EC90 [1]: 105 nM

CN1C(=O)c2c(O)c(=O)ccn2N2[C@@H](c3ccccc3)c3ccccc3OCC[C@H]12
EC50 [1]: > 500 nM
EC90 [1]: > 500 nM

O=C1c2c(O)c(=O)ccn2N2[C@H](c3ccccc3)c3ccccc3OCC[C@H]2N1C1CCC1 (racemic)
EC50 [1]: 65 nM
EC90 [1]: 120 nM

CN1C(=O)c2c(O)c(=O)ccn2N2[C@H](c3ccc(F)cc3)c3cc(F)c(F)cc3OCC[C@@H]12
EC50 [1]: 14 nM
EC90 [1]: 24 nM

CN1C(=O)c2c(O)c(=O)ccn2N2[C@H](c3ccccc3C#N)c3cc(F)c(F)cc3OCC[C@@H]12 (racemic)
EC50 [1]: > 500 nM
EC90 [1]: > 500 nM

CN1C(=O)c2c(O)c(=O)ccn2N2[C@H](c3ccccc3Br)c3cc(F)c(F)cc3OCC[C@@H]12 (racemic)
EC50 [1]: 11 nM
EC90 [1]: 18 nM

CN1C(=O)c2c(O)c(=O)ccn2N2[C@H](c3ccc(F)c(F)c3)c3cc(F)c(F)cc3OCC[C@@H]12
EC50 [1]: 25 nM
EC90 [1]: 42 nM

CN1C(=O)c2c(O)c(=O)ccn2N2[C@H](c3ccccc3F)c3cc(F)c(F)cc3OCC[C@@H]12
EC50 [1]: 11 nM
EC90 [1]: 16 nM

CN1C(=O)c2c(O)c(=O)ccn2N2C(c3ccccc3)c3ccccc3OCCC12 (racemic)
EC50 [1]: > 1000 nM
EC90 [1]: > 1000 nM

COC(=O)OCOc1c2n(ccc1=O)N([C@@H]1c3ccccc3SCc3c1ccc(F)c3F)[C@@H]1COCCN1C2=O [BALOXAVIR MARBOXIL]
Cmax [2]: 145 nM
AUClast [3]: 0.88 µM·h
t1/2 [4]: 4.1 h
Activity [5]: Active

CN1C(=O)c2c(O)c(=O)ccn2N2[C@H](c3ccccc3)c3ccccc3OCC[C@@H]12
EC50 [1]: 14 nM
EC90 [1]: 26 nM

CN1C(=O)c2c(O)c(=O)ccn2N2[C@H](c3ccccc3)c3ccc(F)c(F)c3OCC[C@@H]12 (racemic)
EC50 [1]: 50 nM
EC90 [1]: 93 nM

O=C1c2c(O)c(=O)ccn2N([C@@H]2c3ccccc3SCc3c2ccc(F)c3F)[C@@H]2COCCN12 [BALOXAVIR]
fraction unbound at 4 h, 400 µM [6]: 0.153
EC50 [7]: 21 nM
EC90 [7]: 43 nM
AUC(0-t) at 24 h [8]: 1.35 µM·h
half-life [9]: 3.9 h
EC50 [10]: 1.4 nM
EC90 [10]: 3 nM
EC50 [1]: 2.1 nM
EC90 [1]: 4.6 nM
EC50 [11]: 4.8 nM
EC90 [11]: 7.4 nM
EC50 [12]: 1.2 nM
EC90 [12]: 1.8 nM
fraction unbound at 4 h, 400 µM [13]: 0.083
EC50 [14]: 5.46 nM
Vd [15]: 14 L/kg
clearance [16]: 61.6 mL/min/kg
CLint [17]: < 8.6 µL/min/mg

CN1C(=O)c2c(O)c(=O)ccn2N2[C@H](c3ccccc3)c3cc(F)c(F)cc3OCC[C@@H]12
fraction unbound at 4 h, 400 µM [6]: 0.122
CC50 [18]: 6480 nM
CLH [19]: < 0.013 mL/min/kg
CC50 [20]: 13300 nM
EC50 [7]: 8.5 nM
EC90 [7]: 16 nM
AUC(0-t) at 24 h [8]: 1.32 µM·h
half-life [9]: 1.2 h
CC50 [21]: 9770 nM
half-life [22]: 2.2 h
EC50 [10]: 2.6 nM
EC90 [10]: 4.2 nM
EC50 [1]: 7.2 nM
EC90 [1]: 12 nM
CC50 [23]: 4130 nM
fraction unbound at 4 h, 400 µM [24]: 0.382
CC50 [25]: 20300 nM
Vd [26]: 3.74 L/kg
CC50 [27]: 20000 nM
Ratio EC50 [28]: 3
AUC(0-t) at 24 h [29]: 0.458 µM·h
CC50 [30]: 5190 nM
EC50 [11]: 0.9 nM
EC90 [11]: 1.6 nM
Vd [31]: 3.68 L/kg
fraction unbound at 4 h, 400 µM [32]: 0.218
CLH [33]: 0.0138 mL/min/kg
EC50 [12]: 1.2 nM
EC90 [12]: 3.2 nM
clearance [34]: 20.8 mL/min/kg
Ratio EC50 [35]: 3
AUC(0-t) at 24 h [36]: 0.576 µM·h
CC50 [37]: 7040 nM
fraction unbound at 4 h, 400 µM [13]: 0.103
EC50 [14]: 12.3 nM
Vd [15]: 4.41 L/kg
clearance [16]: 57.4 mL/min/kg
half-life [38]: 2.6 h
clearance [39]: 20.8 mL/min/kg
CLint [17]: < 8.6 µL/min/mg
CC50 [40]: 12400 nM
CLH [41]: 0.1106 mL/min/kg
Ratio CC50/EC50 [42]: >485
